In ChEMBL document CHEMBL1201862, “PubChem BioAssay data set” (2004):
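Growth conditions: 96-well plates. Treatment: test compound, 48 hours, 5 concentrations. Analysis: linear interpolation between bracketing concentrations; unreached endpoints set to highest concentration. Here, GI50 denotes the concentration required for 50% inhibition of growth.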 Calls of active or inactive are those of the source. No stated cut-off is given here; in the data, active = GI50 up to about 1.1 µM and inactive = higher.

Tests used:
Test in all cases: DTP human tumour cell line panel, 48 h
A498 = test system: A498
CCRF-CEM = test system: CCRF-CEM
EKVX = test system: EKVX
HCT-116 = test system: HCT-116
HCT-15 = test system: HCT-15
HOP-62 = test system: HOP-62
HOP-92 = test system: HOP-92
KM12 = test system: KM12
LOX IMVI = test system: LOX IMVI
MOLT-4 = test system: MOLT-4
NCI-H23 = test system: NCI-H23
OVCAR-3 = test system: OVCAR-3
OVCAR-5 = test system: OVCAR-5
SF-295 = test system: SF-295
SF-539 = test system: SF-539
SK-MEL-28 = test system: SK-MEL-28
SK-MEL-5 = test system: SK-MEL-5
SW-620 = test system: SW-620
T47D = test system: T47D
UACC-257 = test system: UACC-257

| Compound | GI50 (A498) | GI50 (CCRF-CEM) | GI50 (EKVX) | GI50 (HCT-116) | GI50 (HCT-15) | GI50 (HOP-62) | GI50 (HOP-92) | GI50 (KM12) | GI50 (LOX IMVI) | GI50 (MOLT-4) | GI50 (NCI-H23) | GI50 (OVCAR-3) | GI50 (OVCAR-5) | GI50 (SF-295) | GI50 (SF-539) | GI50 (SK-MEL-28) | GI50 (SK-MEL-5) | GI50 (SW-620) | GI50 (T47D) | GI50 (UACC-257) |
| --- | --- | --- | --- | --- | --- | --- | --- | --- | --- | --- | --- | --- | --- | --- | --- | --- | --- | --- | --- | --- |
| CC1=NN(c2nc(N)nc(C(C#N)C(=O)c3cc4c(cc3Cl)Sc3nccn3S4(=O)=O)n2)C(C)(C)C1 (stereo not given) | 52.1 µM (inactive) | 6.84 µM (inactive) | 16.9 µM (inactive) | 18 µM (inactive) | 6.44 µM | 34.7 µM (inactive) | 26.7 µM (inactive) | 20 µM (inactive) | 17.7 µM (inactive) | 13 µM (inactive) | 16.1 µM (inactive) | 13.6 µM (inactive) | > 100 µM (inactive) | 20.5 µM (inactive) | 37.7 µM (inactive) | 20 µM (inactive) | 14 µM (inactive) | 20.5 µM (inactive) | 14.6 µM (inactive) | 19.2 µM (inactive) |
| CN(C)CCCC1c2ccccc2Oc2ccc(C(F)(F)F)cc21 (stereo not given) | 10.8 µM (inactive) | 9.42 µM (inactive) | 15.9 µM (inactive) | 11.7 µM (inactive) | 16.1 µM | 16.5 µM (inactive) | 11.9 µM (inactive) | 14.2 µM (inactive) | 15.6 µM (inactive) | 6.64 µM (inactive) | 16 µM (inactive) | 15.3 µM (inactive) | 14.9 µM (inactive) | 16.5 µM (inactive) | 13.3 µM (inactive) | 6.46 µM (inactive) | 7.45 µM (inactive) | 15.4 µM (inactive) | 14.6 µM (inactive) | 11.6 µM (inactive) |
| O=[N+]([O-])c1nccn1CC(O)CN1CCCCC1 (stereo not given) [PIMONIDAZOLE] | > 100 µM (inactive) | > 100 µM (inactive) | > 100 µM (inactive) | > 100 µM (inactive) | > 100 µM | > 100 µM (inactive) | > 100 µM (inactive) | > 100 µM (inactive) | > 100 µM (inactive) | > 100 µM (inactive) | > 100 µM (inactive) | > 100 µM (inactive) | > 100 µM (inactive) | > 100 µM (inactive) | > 100 µM (inactive) | > 100 µM (inactive) | > 100 µM (inactive) | > 100 µM (inactive) | > 100 µM (inactive) | > 100 µM (inactive) |
| CC1=CC(=O)c2c(O)cccc2C1=O [PLUMBAGIN] | 5.86 µM (inactive) | 0.208 µM (active) | 1.6 µM (inactive) | 1.66 µM (inactive) | 1.7 µM | 5.52 µM (inactive) | 0.465 µM (active) | 6.17 µM (inactive) | 1.81 µM (inactive) | 0.236 µM (active) | 1.81 µM (inactive) | 1.03 µM (active) | 1.94 µM (inactive) | 11.5 µM (inactive) | 1.91 µM (inactive) | 1.82 µM (inactive) | 1.62 µM (inactive) | 1.91 µM (inactive) | 0.434 µM (active) | 1.81 µM (inactive) |
